This experiment has as its system CEM cells HIV-1 protection, formazan growth assay. The experiment is described as follows: NCI AIDS Antiviral Assay. The following applies: for IC50: measured here: growth of uninfected CEM cells. Put shortly: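 CEM (human) cells, HIV-1 infected vs uninfected, 5-point dosing, formazan growth read-out. Retest threshold 50% protection.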

For 71 molecules, EC50, IC50 and outcome results are on record in PubChem BioAssay AID179 (DTP/NCI, 2004).

Calls of active or inactive are those of the source.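 How the source made its calls: active means compounds giving half or more protection of infected cells from virus-caused growth loss, again on retest; inactive means the rest.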

For the molecule `Cc1ccc(/C=C/C(=O)c2sc(-c3nc(C)c(C(=O)/C=C/c4ccc(C)cc4)s3)nc2C)cc1`, the EC50 was > 38.9 µM and the IC50 is > 38.9 µM.

Consider `Cc1ccc(SC2CC3CC2C2COCC32)cc1` (stereo not drawn), for which the EC50 is > 85.1 µM and the half-maximal inhibitory concentration (IC50) is 47.9 µM.

In the case of `O=C(/C=C/c1ccc(Br)cc1)c1ccc(NCc2nc3ccccc3[nH]2)cc1`, the EC50 is > 16.6 µM and the 50% inhibitory concentration (IC50) turned out to be 11.5 µM.

Consider `O=[N+]([O-])c1ccc(-c2csc3nc(-c4ccccc4)nn23)cc1`, for which the EC50 was > 200 µM and the IC50 is > 200 µM.

As to `C[N+](C)(C)CC(=O)N/N=C/c1oc(-c2cccc([N+](=O)[O-])c2)c(-c2cccc([N+](=O)[O-])c2)c1[N+](=O)[O-]`, the EC50 was > 9.77 µM and the IC50 was > 9.77 µM.

Regarding `Cc1ccc(S(=O)(=O)Nc2cccc(C)c2C)cc1`, the outcome was inactive.

Take `CC1CC/C(=C\c2ccc(Cl)cc2)C2OC(N)=C(C#N)C(c3ccc(Cl)cc3)=C12` (stereo not drawn): the result was inactive.

Take `Nc1nc2c(c(=O)[nH]1)N(C=O)C(CNc1ccc(C(=O)N[C@@H](CCC(=O)O)C(=O)O)cc1)CN2` (stereo partly drawn): the EC50 was > 200 µM and the IC50 is > 200 µM.

Take `CC(C)OP(=O)(OC(C)C)C(N(C)C)P(=O)(OC(C)C)OC(C)C.[Cl][Sn]([Cl])([Cl])[c]1ccccc1`: the outcome was inactive.

Regarding `Nc1cccc(N=Nc2c(S(=O)(=O)O)cc3cc(NC(=O)Nc4ccc5c(O)c(N=Nc6cccc(N)c6)c(S(=O)(=O)O)cc5c4)ccc3c2O)c1`, the EC50 was 13.5 µM and the IC50 was > 100 µM.

For `Cn1cnc([N+](=O)[O-])c1Sc1nc(N)nc2c1ncn2C1OC(CO)C(O)C1O` (stereo not drawn), the EC50 is > 200 µM and the IC50 is 0.309 µM.

Turning to `O=C1C2C(C(=O)N1c1ccccc1)C(c1ccccc1)N(c1ccccc1)C2c1ccccc1` (stereo not drawn), the EC50 is > 22.4 µM and the concentration for half-maximal inhibition (IC50) was found to be 15.8 µM.

With `CC(C)(C)C=C=C(C(C)(C)C)P(=O)(O)O`, the EC50 was > 200 µM and the IC50 was > 200 µM.

`Nc1nc(N)nc(-c2cnc3ccccc3c2)n1`: the EC50 is > 200 µM and the IC50 was > 200 µM.

For `CC(C)(C)OC(=O)N[C@H]1CC2(C=C(Cl)C(=O)C(Cl)=C2)OC1=O`, the outcome was inactive.

As for `ClB1NB(Cl)NB(Cl)N1`, the EC50 is > 138 µM and the 50% inhibitory concentration (IC50) is > 138 µM.

For `CC(C)NC(=O)OCc1nnn2c1C(OC(=O)NC(C)C)CC2` (stereo not drawn), the result was inactive.

For `N#CC(NNC(=O)c1ccccc1O)c1ccc(O)cc1` (stereo not drawn), the EC50 is > 331 µM and the IC50 was determined as 1.95 µM.

For the molecule `CCN(CC)CCNC(=O)c1ccc(C)c(OCc2ccccc2)c1[N+](=O)[O-]`, the EC50 is > 200 µM and the IC50 was found to be 33.9 µM.

Regarding `COC1=C(C2=C(OC)C(=O)c3cc4c(c(O)c3C2=O)C(=O)OC(C)C4)C(=O)c2c(cc3c(c2O)C(=O)OC(C)C3)C1=O` (stereo not drawn), the outcome was inactive.

For the molecule `O=c1[nH]c(=O)n(C2OC(CO)C(O)C2O)c2ncc(-c3ccc(-c4ccccc4)cc3)nc12` (stereo not drawn), the EC50 is > 20 µM and the IC50 is > 20 µM.

On to `OCc1cc2c(ccc3sc4ccc5sc6ccc7ncccc7c6c5c4c32)s1`, for which the EC50 is > 200 µM and the half-inhibitory concentration (IC50) amounted to 11.2 µM.

Consider `C=C1c2nc3ccccc3n2C=C(c2ccc(Cl)cc2)N1c1ccccc1`, for which the EC50 was > 200 µM and the IC50 was found to be 95.5 µM.

With `COC1CC(Br)(C#N)C1` (stereo not drawn), the result was inactive.

Consider `COc1ccc(/C=C2\CCC/C(=C\c3ccc(O)c(CN4CCCCC4)c3)C2=O)cc1`, for which the EC50 is > 200 µM and the half-maximal inhibitory concentration (IC50) was 3.16 µM.

On to `COC(=O)CC1C2CCC1C(=O)C2` (stereo not drawn), for which the EC50 is > 200 µM and the 50% inhibitory concentration (IC50) is > 200 µM.

Regarding `Nc1cnc(Nc2cccc3ccccc23)o1`, the EC50 is > 200 µM and the half-maximal inhibitory concentration (IC50) was > 200 µM.

Take `Cc1ccc(NC(=O)CC(=O)n2nc(C)c(N=Nc3ccccc3Cl)c2C)cc1`: the outcome was inactive.

For the molecule `CNC(=O)N1CN(c2ccccc2)C2(CCN(CCCC3(c4ccc(F)cc4)OCCO3)CC2)C1=O`, the EC50 was > 200 µM and the IC50 is 38.9 µM.

With `Cc1ccc(C(=O)/C(C#N)=C/Nc2c(C)n(C)n(-c3ccccc3)c2=O)cc1`, the EC50 was > 200 µM and the IC50 is > 200 µM.

Turning to `CCC1(c2c(F)c(F)c(N)c(F)c2F)CCC(=O)NC1=O` (stereo not drawn), the result was inactive.

Turning to `O=C(/C=C\c1cccc2ccccc12)c1ccc(Br)cc1`, the EC50 is > 3.09 µM and the IC50 is > 3.09 µM.

With `CC(C)CCCC(C)[C@H]1CC[C@H]2[C@@H]3CC[C@H]4C[C@@H](CCC=C(c5cc(Cl)c(OCc6cccc([N+](=O)[O-])c6)c(C(=O)O)c5)c5cc(Cl)c(OCc6cccc([N+](=O)[O-])c6)c(C(=O)O)c5)CC[C@]4(C)[C@H]3CC[C@]12C` (stereo partly drawn), the EC50 is 95.5 µM and the 50% inhibitory concentration (IC50) is > 200 µM.

Consider `O=[N+]([O-])c1ccc(-n2nc3ccc4c(no[n+]4[O-])c3n2)cc1`, for which the EC50 was > 200 µM and the concentration for half-maximal inhibition (IC50) was 57.5 µM.

For the molecule `O=C1CC(c2ccccc2)n2cccc21` (stereo not drawn), the result was inactive.

With `C/C=C1\CN(C)C[C@@]2(C(=O)OC)Cc3c(n(OC)c4ccccc34)C(=O)C[C@@H]12`, the EC50 is > 135 µM and the IC50 stood at 97.7 µM.

In the case of `CC(=O)Nc1ccc(Nc2cc(=O)n(C)c(=O)[nH]2)cc1`, the EC50 was > 200 µM and the half-inhibitory concentration (IC50) is > 200 µM.

For the molecule `CC1=C(C)C(=O)c2c(cc3ccccn23)C1=O`, the result was inactive.

Consider `CCOC(=O)c1c(Cl)nc2ccccc2c1N=[N+]=[N-]`, for which the EC50 is > 200 µM and the half-maximal inhibitory concentration (IC50) worked out at 31.6 µM.

As for `Nc1nc2c(ncn2CC2COC(CO)O2)c(=O)[nH]1` (stereo not drawn), the EC50 was > 468 µM and the IC50 was > 468 µM.

In the case of `O=C(CCCC[n+]1ccccc1)Sc1ccccc1C(=O)Nc1ccc(S(=O)(=O)Nc2ccnn2-c2ccccc2)cc1`, the EC50 is 6.17 µM and the IC50 was determined as 35.5 µM.

Turning to `S=C(S)N1CCN(c2ccccc2)CC1`, the EC50 is > 200 µM and the IC50 is > 200 µM.

`Cc1ccccc1NC(=O)C(=O)c1c(O)c2ccc(O)cc2oc1=O`: the EC50 was > 741 µM and the IC50 amounted to 331 µM.

Consider `O=C(O)C1=CCCc2ccc3ccccc3c21`, for which the result was inactive.

`CCOC(=O)NC(C(C(=O)OCC)C(=O)OCC)(C(F)(F)F)C(F)(F)F`: the EC50 is > 200 µM and the IC50 is > 200 µM.

Regarding `CN1c2ccccc2S(=O)(=O)n2c(COc3ccc(Cl)cc3)nnc21`, the EC50 was > 200 µM and the IC50 was > 200 µM.

Take `COc1ccccc1Nc1nc(N)nc(N)c1N=O`: the EC50 is > 200 µM and the half-maximal inhibitory concentration (IC50) was > 200 µM.

Turning to `CN(C)CCCn1c2c(c3ccccc31)CCCCCC2`, the EC50 is > 200 µM and the IC50 amounted to 31.6 µM.

In the case of `COc1nc(N)nc2c1n(C)c[n+]2C`, the EC50 is > 200 µM and the 50% inhibitory concentration (IC50) came to 141 µM.

On to `COC(=O)/C(=N\NC(N)=O)C(C(=O)C=C(C)C)C(=O)C(=O)Nc1ccc(Cl)c(Cl)c1` (stereo not drawn), for which the EC50 is > 550 µM and the 50% inhibitory concentration (IC50) stood at 457 µM.

`CNC(=O)C(C)Oc1ccc(OCC2CCCCC2)cc1` (stereo not drawn): the EC50 was > 170 µM and the IC50 is 30.2 µM.

As to `C/C(=N/O)c1ccc2c(c1)C(=NO)c1cc(/C(C)=N/O)ccc1-2`, the EC50 was > 83.2 µM and the IC50 was found to be 11.5 µM.

Regarding `O=C(Nc1c(NCC(O)C(O)C(O)CO)[nH]c(=O)[nH]c1=O)c1ccc(S(=O)(=O)F)cc1` (stereo not drawn), the EC50 was > 200 µM and the half-inhibitory concentration (IC50) came out at 117 µM.

Regarding `O=C1/C(=C/c2cccc([N+](=O)[O-])c2)Sc2scc(-c3ccc([N+](=O)[O-])cc3)[n+]21`, the EC50 is > 200 µM and the half-maximal inhibitory concentration (IC50) turned out to be 38 µM.

On to `Cc1ccc(S(=O)(=O)OC2C(O)C(O)OC2C(c2cc(O)c3c(c2O)C(=O)c2ccccc2C3=O)c2cc(O)c3c(c2O)C(=O)c2ccccc2C3=O)cc1` (stereo not drawn), for which the EC50 was > 200 µM and the IC50 worked out at 14.5 µM.

Take `Cc1ccc(NC(=O)CC/C(CC(=O)C(C)(C)C)=N/NC(=O)C(N)=O)cc1C`: the EC50 was > 324 µM and the concentration for half-maximal inhibition (IC50) is > 324 µM.

Consider `C/C(=N\NC(N)=O)C(CN1CCCCC1)C(c1ccccc1)c1c(O)c2ccccc2oc1=O` (stereo not drawn), for which the EC50 is > 87.1 µM and the IC50 is 46.8 µM.

Regarding `C/C(CC(=O)Nc1cccc(Cl)c1C)=N\N=C(N)N`, the EC50 is > 91.2 µM and the IC50 was > 91.2 µM.

As for `O=C(O)c1cnc2[nH]ccn2c1=O`, the EC50 is > 200 µM and the IC50 was > 200 µM.

As for `CCOC(=O)c1cc(-c2ccc(OC)cc2)c([N+](=O)[O-])[nH]1`, the EC50 was > 200 µM and the concentration for half-maximal inhibition (IC50) was 25.7 µM.

`C#CCOCn1cnc2c(Cl)ncnc21`: the EC50 was > 1120 µM and the IC50 came out at 79.4 µM.

In the case of `COc1cc2c(cc1OC)CN1CCc3cc(OC)c(OC)cc3[C@@H]1C2`, the EC50 is > 200 µM and the half-inhibitory concentration (IC50) is 145 µM.

Turning to `c1ccc(N2N=NC3CCCC32N2CCCCC2)cc1` (stereo not drawn), the EC50 is > 200 µM and the IC50 worked out at 110 µM.

For `S=C1NCCN1C(=S)NC1CCCCC1`, the 50% effective concentration (EC50) was 22.4 µM and the half-inhibitory concentration (IC50) was > 100 µM.

With `O=C(/C=C/c1ccc2c(c1)OCO2)c1cccc2ccccc12`, the EC50 is > 6.61 µM and the 50% inhibitory concentration (IC50) is > 6.61 µM.

Turning to `COc1ccc2c(c1)CC1NC2Cc2ccccc21` (stereo not drawn), the outcome was inactive.

With `O=C(CC(=O)N1N=C(N2CCCCC2)CC1c1ccccc1)Nc1ccccc1` (stereo not drawn), the EC50 is > 200 µM and the 50% inhibitory concentration (IC50) is > 200 µM.

With `CC1(Cl)C(=O)NC(=O)N(C2CC(N=[N+]=[N-])C(CO)O2)C1N=[N+]=[N-]` (stereo not drawn), the 50% effective concentration (EC50) is 3.89 µM and the 50% inhibitory concentration (IC50) was 282 µM.

As for `COC(=O)CSC(=S)Nc1nnc(NC(=S)SCOC(C)=O)n1C(=S)SCC(=O)OC`, the EC50 is > 200 µM and the IC50 is > 200 µM.

Consider `CCOC(=O)c1sc2c(c1OC(=O)c1ccccc1)c(=O)n(-c1ccccc1)c(=S)n2-c1ccccc1`, for which the EC50 is > 200 µM and the concentration for half-maximal inhibition (IC50) was 132 µM.

Turning to `CSC(=S)N(C)c1nc(=[N+](C)C)ss1`, the outcome was inactive.
